Reference: publication PMC10420992, “Phosphodiesterase 5 and Arginase Inhibitory Activities of the Extracts from Some Members of Nelumbonaceae and Nymphaeaceae Families” (Molecules, 2023)

Legend:
PDE5 (PDE5A1) = biological target: T1, PDE5 (PDE5A1) (Homo sapiens, UniProt O76074); assay: Phosphodiesterase 5 inhibition assay (two-step radioactive procedure, [3H]cGMP); assay type: biochemical; settings: for IC50: flavonoids, mean ± SD, triplicate
T1 construct: made in house; host or cells: HEK293 (transient transfection; supernatant of sonicated homogenate)

[1] = tested on: PDE5 enzymes isolated from the mice lungs; set-up: method as in PMID 25920267; settings: cited from earlier work
[2] = biological target: PDE5 enzymes isolated from the lungs and hearts of male guinea pigs; settings: cited from earlier work
[3] = tested on: rabbit corpus cavernosum tissues; set-up: method as in PMID 17968465; settings: rabbit tissue; cited from earlier work

PDE5 IC50 level (in words) (PDE5 (PDE5A1))	IC50 (PDE5 (PDE5A1)) [µM]	PDE5 inhibitory activity of 3 relative to 1, 2 and 4 (PDE5 (PDE5A1); times stronger than 1, 2, and 4)	SMILES	PDE5 inhibition (in words) [1]	IC50 [2] [µM]	Relaxant effect on corpus cavernosum tissues [3]
micromolar level	5.63 ± 0.2		COc1c(-c2ccc(O)c(OC3OCC(O)C(O)C3O)c2)oc2cc(O)cc(O)c2c1=O (stereo not drawn) [Compound 2, quercetin 3-methyl ether 3’-O-β-xylopyranoside]			
micromolar level	0.61 ± 0.11	7–9 times	O=c1c(O)c(-c2ccc(O)c(O)c2)oc2cc(O)cc(O)c12 [Compound 3, quercetin]	inhibit PDE5 enzymes		
micromolar level	5.74 ± 2.11		COc1c(-c2ccc(O)c(O)c2)oc2cc(O)cc(O)c2c1=O [Compound 4, 3-O-methylquercetin]		86.9	
micromolar level	4.41 ± 0.46		COc1c(-c2ccc(O)cc2)oc2cc(O)cc(O)c2c1=O [Compound 6, 3-O-methylkaempferol]			

More lines, now with the values behind:

SMILES	PDE5 IC50 level (in words) (PDE5 (PDE5A1))	IC50 (PDE5 (PDE5A1)) [µM]	PDE5 inhibitory activity of 3 relative to 1, 2 and 4 (PDE5 (PDE5A1); times stronger than 1, 2, and 4)	PDE5 inhibition (in words) [1]	IC50 [2] [µM]	Relaxant effect on corpus cavernosum tissues [3]
O=c1c(O)c(-c2ccc(O)c(O[C@@H]3OC[C@@H](O)[C@H](O)[C@H]3O)c2)oc2cc(O)cc(O)c12 [Compound 1, quercetin 3’-O-β-xylopyranoside]	micromolar level	4.09 ± 0.76				
O=c1c(O)c(-c2ccc(O)cc2)oc2cc(O)cc(O)c12 [Compound 5, kaempferol]				inhibit PDE5 enzymes		
COc1ccc(C[C@@H]2c3cc(Oc4cc(C[C@@H]5c6cc(OC)c(OC)cc6CCN5C)ccc4O)c(OC)cc3CCN2C)cc1 [Neferine]						relaxant effect
